Here are results for two molecules from patent US12370183B2, “Compositions and methods for treating malaria” (Rutgers, The State University of New Jersey, priority 2020, dated 2025).

Each structure is given as a SMILES string. Like-named read-outs stand apart in the source and are kept apart here. Some results are limits rather than exact numbers.

The subject of data set [1] is HepG2-A16-CD81EGFP cells. The data set can be described thus: HepG2 cytotoxicity bioluminescence assay (CellTiter-Glo). The data set is classed as cell-based, human. Particulars: for concentration below which no toxicity was seen: HepG2-A16-CD81EGFP, 48 h, CellTiter-Glo. The method, then: Compounds 66 and 177 were tested for viability of liver schizonts of the murine Plasmodium berghei species transformed with Luciferase by using the following assay adapted and modified from S. Swann et al. (2016) High-Throughput Luciferase-Based Assay for the Discovery of Therapeutics That Prevent Malaria. ACS Infectious Diseases 2: 4. 281-293 (2016), but with the removal of the infection methods. The CellTiter-Glo® ° (Promega Corp., Madison WI) is a method to determine the number of viable cells in culture based on quantitation of the ATP present, which signals the presence of metabolically active cells.
HepG2-A16-CD81EGFP cells were stably transformed to express a GFP-CD81 fusion protein (S. Yalaoui et al., Hepatocyte permissiveness to Plasmodium infection is conveyed by a short and structurally conserved region of the CD81 large extracellular domain. PLoS Pathog. 4, e1000010 (2008); O. Silvie et al, Hepatocyte CD81 is required for Plasmodium falciparum and Plasmodium yoelii sporozoite infectivity. Nat. Med. 9, 93 (2003)). The transformed HepG2-A16-CD81EGFP cells were cultured at 37° C. in 5% CO2 in DMEM (Invitrogen, Carlsbad, USA) supplemented with 10% FCS, 0.29 mg/ml glutamine, 100 units penicillin and 100 μg/ml streptomycin.
[…] HepG2-A16-CD81EGFP cells in 5 μl of medium (2×10^5 cells/ml, 5% FBS, 5× Pen/Strep/Glu) were seeded in 1536-well plates (Greiner BioOne white solid bottom custom GNF mold) 20-26 hours prior to the actual infection. 24 hours prior to infection, 50 nl of compound in DMSO (0.5% final DMSO concentration per well) was transferred with acoustic transfer machine (ATS) into the assay plates (10 μM-50 μM final concentration). Puromycin (25 μM) and 0.5% DMSO were used as positive and negative controls, respectively.
5 μl of the HepG2 screening media were dispensed into each well of the 1536 plate format using the BioTek MultiFlo FX Multi-Mode Cell Dispenser and a 5 μl BioTek Liquid Handling MicroFlo cassette. This step was to maintain equal concentrations of compounds with the Pb-Luc infected plates that were performed in parallel with this assay (P. berghei-Luciferase Liver Stage Bioluminescence Assay). After incubation at 37° C. for 48 hours, the cell viability was quantified by bioluminescence measurement. […] Puromycin and naive wells were used as controls on each plate. The compounds were screened in a 12 point serial dilution to determine their IC50 values.
Media was removed by spinning the inverted plates at 150 RCF for 1 minute. CellTiter-Glo® reagent (Promega Corp., Madison WI) was prepared following manufacturer instructions and diluted with DI H2O 1:1 (final solution is 50% CellTiterGlo® reagent in DI H2O). […] Immediately after addition of the CellTiter-Glo® reagent, the plates were read by the Envision Multilabel Reader (PerkinElmer).
For orientation: In ATP-based viability assays light output follows the ATP content of the culture.

Data set [2] deals with resistant P. falciparum variant K1. The data set can be described thus: Potency against resistant P. falciparum variant K1 (EC50). It counts as cell-based. Particulars: Plasmodium falciparum.
Data set [3] is described as follows: Stability of the pyrrolinone to acid followed by H-1 NMR. It counts as physicochemical. Particulars: methanol-D4, deuterated acetic acid dropwise; reversed by sodium hydride. The method, then: Without wishing to be bound by any particular theory or mechanism of action, it can be contemplated that the unique aminal structure of the pyrrolinones imparts specific chemical behavior. Aminals are normally unstable functionalities that are prone to hydrolysis. To test the stability of the […], a solution of 177 in methanol-D4 was treated dropwise with deuterated acetic acid. The experiment was followed by H-1 NMR analysis by observing the reduction of the peaks at 6.12 ppm and 8.73 ppm and the appearance of a peak at 9.42. […] Basifying the solution with sodium hydride returns the mixture to pyrrolinone.

On to `O=C(Nc1ccc(F)c(F)c1)c1c2c(nc3ccccc13)CCN(Cc1ccccc1)C2` [Compound 66, 2-Benzyl-N-(3,4-difluorophenyl)-1,2,3,4-tetrahydrobenzo[b][1,6]naphthyridine-10-carboxamide], for which the “cell-based toxicity, in words” value in data set [1] was “acceptable levels of cell-based toxicity”. Also, in data set [1], the “concentration below which no toxicity was seen” value is not below 50 µM. Further, the EC50 – broadly, the concentration needed to bring the measured effect to its halfway point – in data set [2] (K1, read-out: K1 EC50) turned out to be 0.0108 µM; in data set [2] (K1, read-out: K1 EC50 (μM)), 0.279 µM.

As to `O=C1c2c3c(nc4ccccc24)CCN(Cc2ccccc2)C3N1c1ccc(F)c(F)c1` (stereo not shown) [Compound 177, 3-Benzyl-2-(3,4-difluorophenyl)-2a,3,4,5-tetrahydrobenzo[b]pyrrolo[4,3,2-de][1,6]naphthyridin-1(2H)-one], in data set [1], the “cell-based toxicity, in words” value is listed as “acceptable levels of cell-based toxicity” and the “concentration below which no toxicity was seen” value was not below 12.5 µM. Moreover, the “stability to acid, in words” value in data set [3] was “Acidification causes the compound to begin conversion into another substance”.
